Measured values as given in the NIST ThermoML archive (doi:10.1016/j.tca.2017.04.014).
± gives the expanded uncertainty stated by the source.

Assay: xn = mol fraction of the nth substance listed
Conditions: 298.15 K, 101.3 kPa, Crystal

With [O-2].[O-2].[Th+4] [thorium dioxide] + [O-2].[O-2].[U+4] the mass density (From pellet mass and volume, x1 = 0.3) was 8570 ± 1900 kg/m3, the mass density (From pellet mass and volume, x1 = 0.5) was 8600 ± 1700 kg/m3 and the mass density (From pellet mass and volume, x1 = 0.6) was 8410 ± 1700 kg/m3. The mass density (From pellet mass and volume, x1 = 0.7) was 9020 ± 1800 kg/m3, the mass density (From pellet mass and volume, x1 = 0.8) was 9240 ± 1800 kg/m3 and the mass density (From pellet mass and volume, x1 = 0.9) was 8800 ± 1800 kg/m3. The mass density (From pellet mass and volume, x1 = 1) was 9390 ± 1900 kg/m3, the mass density (X-ray diffraction, x1 = 0.3) was 10810 ± 210 kg/m3 and the mass density (X-ray diffraction, x1 = 0.5) was 10810 ± 140 kg/m3. For the same compound, the mass density (X-ray diffraction, x1 = 0.6) was 10640 ± 130 kg/m3, the mass density (X-ray diffraction, x1 = 0.7) was 10480 ± 100 kg/m3 and the mass density (X-ray diffraction, x1 = 0.8) was 10350 ± 70 kg/m3. For the same compound, the mass density (X-ray diffraction, x1 = 0.9) was 10170 ± 50 kg/m3, the mass density (X-ray diffraction, x1 = 1) was 10000 ± 30 kg/m3 and the mass density (buoyancy, x1 = 0.3) was 8960 ± 1900 kg/m3. For the same compound, the mass density (buoyancy, x1 = 0.5) was 8780 ± 1800 kg/m3, the mass density (buoyancy, x1 = 0.6) was 8690 ± 1800 kg/m3 and the mass density (buoyancy, x1 = 0.7) was 9290 ± 1900 kg/m3. For the same compound, the mass density (buoyancy, x1 = 0.8) was 9590 ± 1900 kg/m3, the mass density (buoyancy, x1 = 0.9) was 9210 ± 1800 kg/m3 and the mass density (buoyancy, x1 = 1) was 9430 ± 1900 kg/m3.
